System: TC-1 cells + TGF-β1-treated murine lung fibroblasts (myoMLF)
Assay: Isograft model TC-1 + myoMLF (myoCAF-high tumours)
Type: in vivo, C57/BL6 female mice
Experimental: SMA immunohistochemistry (IHC; Sigma Aldrich; A2547) on FFPE tissues was performed as previously: in brief, tissues were fixed in 4% paraformaldehyde and embedded in paraffin. 4 μm sections were de-paraffinized, rehydrated and antigen retrieved for 20 minutes at 97° C. using a predefined program on the Dako PT links. Antigen retrieval was performed using Envision FLEX High pH. Endogenous peroxidase activity was blocked using 3% hydrogen peroxide. Mouse Ig blocking reagent (M.O.M kit vector labs) was applied for 1 hour. Primary antibody incubation (1:100) in M.O.M diluent (vector labs) was for 20 minutes. For secondary amplification, M.O.M. Biotinylated anti-Mouse IgG reagentwas applied for 10 minutes followed by Vectorstain elite ABC reagent (vector labs). Chromogenic visualization was completed with 2×5 minute washes in DAB and counterstaining with Haematoxylin. For IHC of CD8 (in house; YTS169), CD4 (BD; RM4-5) and F480 (AbD Serotec; CI:A3-1) tissues were frozen in OCT. 8 μm sections were fixed in 100% acetone for 10 minutes. Endogenous peroxidase activity was blocked using neat peroxidase suppressor (Peirce) for 15 minutes. Sections were blocked for 30 minutes with 2.5% goat serum. Primary antibodies were applied for 2 hours −CD8 (1:800), CD4 (1:100), F480 (1:100). Appropriate species HRP polymer (ImmunoPress, Vector Laboratories) was applied to sections for 30 minutes. Vector NovaRED chromagen substrate (Vector Laboratories) was applied for 2-10 minutes then counterstained with haematoxylin (Vector Laboratories) for 30 seconds. Images were captured using an Olympus CKX41 microscope with Cell B imaging software. % area of staining was calculated using Fiji software (java) by running the ‘color deconvolution’ tool analyzing H DAB. The image was appropriately thresholded based on the ‘color 2’ image. The same thresholding was applied to all images from the same experiment. Regions of interest (margin & core) were confirmed by a pathologist, and each point plotted represents the mean of a minimum of 4 independent fields of view (field diameter=2 mm) from margin and core (one section per mouse). The mean was calculated from 2 or 3 mice/experimental group.
Quantification of SMA staining in mouse tumours was carried out using color thresholding and deconvolution in Fiji. At least three independent fields of view (FoV) of at least three tumours were randomly selected by a consultant pathologist (GJT) to generate a mean value per tumour representing the SMA-positive area %, which was compared between treatment groups.
CD8 and CD4 IHC was performed on frozen tissue embedded in OCT using [YTS169 (CD8; in house) and RM4-5 (CD4; BD) (FIG. 6c & FIG. 12e). 8 μm sections were fixed in 100% acetone for 10 minutes and stained as previously shown. CD8 and CD4 IHC on FFPE was performed using 98941S and 25229S respectively (Cell Signaling; FIG. 6a,g,k,o and FIG. 12a-c,g & 13m,o) using the Leica Bond system according to the manufacturer's instructions (Protocol F mouse 4; HIER 20 MINUTES ER1; Temperature-Ambient; 1:100 dilution; 20 min of NGS blocking incubation). CD8 and CD4 T-cells were counted from ten randomly selected fields of view (FoV) from the tumour by a consultant pathologist (GJT).
All mouse experiments were performed according to national and international guidelines and were approved by the authors' institutional review board and the UK Home Office. Xenograft model: 6.7×10^5 PT cells±2×10^6 HFFF2 cells were resuspended in 100 μl PBS and injected s.c. in the flank of partially immunocompromised, male RAG1−/−C57BL/6 mice (3-5 months old). Isograft models: 0.5×10^5 TC-1 cells±3×10^5 TGF-β1-treated murine lung fibroblasts (myoMLFs) or 1×10^5 MC38 cells±5×10^5 TGF-β1-treated murine colon fibroblasts (myoMCFs) were resuspended in 100 μl PBS and injected s.c. in the flank of C57/BL6 female mice (6-8 weeks old). 5-8 animals for both models were used per group. […]

[1] = AZD0156 20 mg/Kg oral gavage daily
[2] = AZD0156, myoCAF-high TC-1 tumours

`CN(C)CCCOc1ccc(-c2ccc3ncc4c(c3c2)n(C2CCOCC2)c(=O)n4C)cn1` [AZD0156] was tested, and the “myofibroblast accumulation (SMA IHC)” value [1] was “suppressed”, the tumour growth [1] was “slowed” and the “CD4 T-cell infiltration (IHC)” value [2] was “unaffected”. The “location of CD8 T-cells, tumour periphery to tumour core (IHC)” value [2] was “significant relocation”, the “CD8 T-cell phenotype/function (flow cytometry)” value (AZD0156, myoCAF-high tumours) was “did not affect” and the overall survival (AZD0156 daily at day 15-28) was “improved”. For the same compound, the “intratumoural myoCAF accumulation” value (AZD0156 monotherapy in the RAH vaccine experiment) was “effective in reducing”.

Source: patent US20260256799A1, “INHIBITORS FOR TREATING SOLID TUMOURS” (UNIVERSITY OF SOUTHAMPTON, priority 2023, published 2026)
